In ChEMBL document CHEMBL4402510, “Caprazamycins: Promising lead structures acting on a novel antibacterial target MraY” (Eur J Med Chem, 2019):

Tests used:
Staphylococcus aureus [1] = assay: Antibacterial activity against Staphylococcus aureus ATCC 25923; assay type: functional
[2] = molecular target: T1, Phospho-N-acetylmuramoyl-pentapeptide-transferase (Bacillus subtilis (strain 168), UniProt Q03521); assay: Inhibition of MraY in Bacillus subtilis
T1 sequence (Q03521 whole entry): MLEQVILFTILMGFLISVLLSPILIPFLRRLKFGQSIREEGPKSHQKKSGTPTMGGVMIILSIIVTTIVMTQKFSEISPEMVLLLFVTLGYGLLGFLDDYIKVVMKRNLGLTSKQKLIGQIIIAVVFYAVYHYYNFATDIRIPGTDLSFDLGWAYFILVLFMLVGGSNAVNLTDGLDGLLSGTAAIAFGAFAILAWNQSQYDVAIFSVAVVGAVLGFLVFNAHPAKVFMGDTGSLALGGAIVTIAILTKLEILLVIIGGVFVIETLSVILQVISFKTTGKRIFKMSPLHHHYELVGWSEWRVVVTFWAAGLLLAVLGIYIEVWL

Citrobacter freundii = assay: Antibacterial activity against Citrobacter freundii ATCC 8090; assay type: functional
Staphylococcus aureus [3] = assay: Antibacterial activity against methicillin resistant Staphylococcus aureus ATCC 43300; assay type: functional
Escherichia coli [4] = assay: Antibacterial activity against Escherichia coli ATCC 8730; assay type: functional
[5] = molecular target: T2, Phospho-N-acetylmuramoyl-pentapeptide-transferase (Aquifex aeolicus (strain VF5), UniProt O66465); assay: Inhibition of MraY in Aquifex aeolicus
T2 sequence (O66465 whole entry): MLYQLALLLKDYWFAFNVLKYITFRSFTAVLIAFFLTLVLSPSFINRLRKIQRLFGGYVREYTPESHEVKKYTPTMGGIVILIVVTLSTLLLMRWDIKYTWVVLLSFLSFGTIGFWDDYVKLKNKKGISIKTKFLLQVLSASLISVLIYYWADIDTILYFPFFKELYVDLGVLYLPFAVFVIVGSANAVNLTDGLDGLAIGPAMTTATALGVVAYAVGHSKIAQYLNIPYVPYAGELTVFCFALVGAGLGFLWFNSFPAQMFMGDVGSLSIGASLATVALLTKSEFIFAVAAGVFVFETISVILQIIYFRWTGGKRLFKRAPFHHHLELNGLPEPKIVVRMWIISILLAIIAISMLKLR

Pseudomonas aeruginosa [6] = assay: Antibacterial activity against Pseudomonas aeruginosa ATCC 27853; assay type: functional
Enterococcus faecium [7] = assay: Antibacterial activity against Enterococcus faecium ATCC 19434; assay type: functional
[8] = tested on: Mycobacterium intracellulare; assay: Antibacterial activity against Mycobacterium intracellulare; assay type: functional
Mycobacterium avium = assay: Antibacterial activity against Mycobacterium avium; assay type: functional
[9] = tested on: Mycolicibacterium smegmatis; assay: Antibacterial activity against Mycobacterium smegmatis; assay type: functional
[10] = tested on: Mycobacterium tuberculosis; assay: Antibacterial activity against Mycobacterium tuberculosis; assay type: functional
Pseudomonas aeruginosa [11] = assay: Antibacterial activity against Pseudomonas aeruginosa PAO1 deltamexB; assay type: functional
Pseudomonas aeruginosa [12] = assay: Antibacterial activity against Pseudomonas aeruginosa YY165; assay type: functional
Acinetobacter baumannii = assay: Antibacterial activity against Acinetobacter baumannii ATCC 19606; assay type: functional; conditions: ATCC 19606 = CIP 70.34 = JCM 6841
Haemophilus influenzae = assay: Antibacterial activity against Haemophilus influenzae ATCC 10211; assay type: functional
Enterococcus faecalis [13] = assay: Antibacterial activity against Enterococcus faecalis SR7914 (VRE); assay type: functional
[14] = molecular target: T3, Phospho-N-acetylmuramoyl-pentapeptide-transferase (Staphylococcus aureus, UniProt P0C1R8); assay: Inhibition of MraY in Staphylococcus aureus
T3 sequence (P0C1R8 whole entry): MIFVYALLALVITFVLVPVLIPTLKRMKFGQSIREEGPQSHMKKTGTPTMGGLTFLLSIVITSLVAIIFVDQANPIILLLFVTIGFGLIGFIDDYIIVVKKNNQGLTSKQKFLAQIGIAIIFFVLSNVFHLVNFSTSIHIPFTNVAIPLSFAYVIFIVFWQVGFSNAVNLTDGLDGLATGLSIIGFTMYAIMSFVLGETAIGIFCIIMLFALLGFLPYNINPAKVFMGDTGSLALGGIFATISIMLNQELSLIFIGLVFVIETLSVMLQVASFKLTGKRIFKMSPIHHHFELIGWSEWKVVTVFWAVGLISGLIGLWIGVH

Enterococcus faecalis [15] = assay: Antibacterial activity against Enterococcus faecalis ATCC 29212; assay type: functional
Staphylococcus aureus [16] = assay: Antibacterial activity against methicillin susceptible Staphylococcus aureus ATCC 29213; assay type: functional
Enterococcus faecium [17] = assay: Antibacterial activity against Enterococcus faecium SR7917 (VRE); assay type: functional
Escherichia coli [18] = assay: Antibacterial activity against Escherichia coli ATCC 25922; assay type: functional
Staphylococcus aureus [19] = assay: Antibacterial activity against methicillin resistant Staphylococcus aureus SR3637; assay type: functional
Streptococcus pneumoniae = assay: Antibacterial activity against Streptococcus pneumoniae; assay type: functional
Escherichia coli [20] = assay: Antibacterial activity against Escherichia coli after 20 hrs by NCCLS-based two-fold broth dilution method; assay type: functional
Enterococcus faecalis [21] = assay: Antibacterial activity against t Enterococcus faecalis after 20 hrs by NCCLS-based two-fold broth dilution method; assay type: functional
Staphylococcus aureus [22] = assay: Antibacterial activity against methicillin susceptible Staphylococcus aureus after 20 hrs by NCCLS-based two-fold broth dilution method; assay type: functional
Staphylococcus aureus [23] = assay: Antibacterial activity against methicillin resistant Staphylococcus aureus after 20 hrs by NCCLS-based two-fold broth dilution method; assay type: functional
Enterococcus faecalis [24] = assay: Antibacterial activity against t Enterococcus faecalis VRE after 20 hrs by NCCLS-based two-fold broth dilution method; assay type: functional
Enterococcus faecium [25] = assay: Antibacterial activity against t Enterococcus faecium after 20 hrs by NCCLS-based two-fold broth dilution method; assay type: functional
Enterococcus faecium [26] = assay: Antibacterial activity against t Enterococcus faecium VRE after 20 hrs by NCCLS-based two-fold broth dilution method; assay type: functional

NC[C@H]1O[C@@H](O[C@@H](c2cn(Cc3ccc(COc4ccc(C(=O)c5ccccc5)cc4)cc3)nn2)[C@H]2O[C@@H](n3ccc(=O)[nH]c3=O)[C@H](O)[C@@H]2O)[C@H](O)[C@@H]1O
75 µM: IC50 [5]
50 µM: IC50 [2]
32 µg/mL: MIC (Staphylococcus aureus [3])
> 128 µg/mL: MIC (Staphylococcus aureus [1]) | MIC (Citrobacter freundii) | MIC (Escherichia coli [4]) | MIC (Pseudomonas aeruginosa [6]) | MIC (Enterococcus faecium [7])

CCCCCCCCCCC[C@@H](CC(=O)O[C@H]1CN(C)[C@@H]([C@H](O[C@@H]2O[C@H](CN)[C@@H](O)[C@H]2O)[C@H]2O[C@@H](n3ccc(=O)[nH]c3=O)[C@H](O)[C@@H]2O)C(=O)N(C)[C@@H]1C(=O)O)OC(=O)C[C@H](C)CC(=O)O[C@@H]1O[C@@H](C)[C@H](OC)[C@@H](OC)[C@H]1OC
0.78 µg/mL: MIC [8] | MIC [10]
< 0.025 µg/mL: MIC (Mycobacterium avium)
0.39 to 1.56 µg/mL: MIC [9]

CC(=O)N[C@@H]1CCN[C@H]([C@H](O[C@@H]2O[C@H](CN)[C@@H](O)[C@H]2O)[C@H]2O[C@@H](n3ccc(=O)[nH]c3=O)[C@H](O)[C@@H]2O)C1
> 64 µg/mL: MIC (Pseudomonas aeruginosa [11]) | MIC (Pseudomonas aeruginosa [12]) | MIC (Acinetobacter baumannii) | MIC (Haemophilus influenzae) | MIC (Enterococcus faecalis [13]) | MIC (Enterococcus faecalis [15]) | MIC (Staphylococcus aureus [16]) | MIC (Enterococcus faecium [17]) | MIC (Escherichia coli [18]) | MIC (Staphylococcus aureus [19]) | MIC (Streptococcus pneumoniae) | MIC (Enterococcus faecium [7])
2.6 mM: IC50 [14]

NC[C@H]1O[C@@H](O[C@@H](c2cn(CCCCCOc3ccc(C(=O)c4ccccc4)cc3)nn2)[C@H]2O[C@@H](n3ccc(=O)[nH]c3=O)[C@H](O)[C@@H]2O)[C@H](O)[C@@H]1O
100 µM: IC50 [2]
> 128 µg/mL: MIC (Staphylococcus aureus [1]) | MIC (Citrobacter freundii) | MIC (Escherichia coli [4]) | MIC (Pseudomonas aeruginosa [6]) | MIC (Enterococcus faecium [7])
64 µg/mL: MIC (Staphylococcus aureus [3])

CCCCCCCCCCCCCCCC(=O)N[C@H]1CCN[C@H]([C@@H](O[C@@H]2O[C@H](CN)[C@@H](O)[C@H]2O)[C@H]2O[C@@H](n3ccc(=O)[nH]c3=O)[C@H](O)[C@@H]2O)C1
> 2.7 mM: IC50 [14]
32 µg/mL: MIC (Escherichia coli [20]) | MIC (Enterococcus faecium [25]) | MIC (Escherichia coli [18]) | MIC (Enterococcus faecium [7])
> 64 µg/mL: MIC (Pseudomonas aeruginosa [11]) | MIC (Pseudomonas aeruginosa [12]) | MIC (Acinetobacter baumannii) | MIC (Haemophilus influenzae)
64 µg/mL: MIC (Streptococcus pneumoniae)
8 µg/mL: MIC (Staphylococcus aureus [22]; read-out: MIC) | MIC (Staphylococcus aureus [16]) | MIC (Enterococcus faecium [17]) | MIC (Enterococcus faecium [26]; read-out: MIC)
16 µg/mL: MIC (Enterococcus faecalis [21]; read-out: MIC) | MIC (Enterococcus faecalis [13]) | MIC (Staphylococcus aureus [23]; read-out: MIC) | MIC (Enterococcus faecalis [24]; read-out: MIC) | MIC (Enterococcus faecalis [15]) | MIC (Staphylococcus aureus [19])

CCCCCCCCCCCCCCCC(=O)NC[C@@H]1C[C@H]2[C@@H](C(=O)N1CCCNC(=N)N)[C@H]([C@H]1O[C@@H](n3ccc(=O)[nH]c3=O)[C@H](O)[C@@H]1O)ON2CCCN
8 µg/mL: MIC (Staphylococcus aureus [22]) | MIC (Staphylococcus aureus [23]) | MIC (Staphylococcus aureus [16]) | MIC (Enterococcus faecium [17]) | MIC (Staphylococcus aureus [19]) | MIC (Enterococcus faecium [26])
16 µg/mL: MIC (Enterococcus faecalis [21]) | MIC (Enterococcus faecalis [13]) | MIC (Enterococcus faecalis [24]) | MIC (Enterococcus faecalis [15])

CC(=O)N[C@@H]1CCN[C@@H]([C@@H](O[C@@H]2O[C@H](CN)[C@@H](O)[C@H]2O)[C@H]2O[C@@H](n3ccc(=O)[nH]c3=O)[C@H](O)[C@@H]2O)C1
> 4.2 mM: IC50 [14]
> 64 µg/mL: MIC (Pseudomonas aeruginosa [11]) | MIC (Pseudomonas aeruginosa [12]) | MIC (Acinetobacter baumannii) | MIC (Haemophilus influenzae) | MIC (Enterococcus faecalis [13]) | MIC (Enterococcus faecalis [15]) | MIC (Staphylococcus aureus [16]) | MIC (Enterococcus faecium [17]) | MIC (Escherichia coli [18]) | MIC (Staphylococcus aureus [19]) | MIC (Streptococcus pneumoniae) | MIC (Enterococcus faecium [7])
